Results reported in patent US20250388553A1 (Incyte Corporation, priority 2018, published 2025).
Structures can show the parent of a compound that is named as a salt. Where two headings read alike, the source gives them in different places.

Legend:
[1] = tested on: Phosphorylated Ribosomal Protein S6 (RPS6) in THP-1 cells; assay: THP-1 RPS6 ELISA assay; assay type: cell-based, Human; details: THP-1 cells, 10 nM MCP-1, phospho-RPS6 ELISA, read-out: PI3Kγ_THP1_RPS6_ELISA IC50
Description: Example A. THP-1 RPS6 ELISA Assay
To measure the Phosphorylated Ribosomal Protein S6 (RPS6) in cell lysates, THP-1 cells (Human Acute Monocytic Leukemia) are purchased from ATCC (Manassas, VA) and maintained in RPMI with 10% FBS (Gibco/Life Technologies, Carlsbad, CA). For the assay, THP-1 cells are serum starved overnight in RPMI, then plated in RPMI (2×10^5 cells/well in […]) into 96-well flat-bottom tissue culture treated plates (Corning, Corning, NY), in the presence or absence of a concentration range of test compounds. Covered plates are incubated for 2 hours at 37° C., 5% CO2 then treated with or without 10 nM MCP-1(MYBioSource, San Diego, CA) for 15 minutes at 37° C., 5% CO2. Plates are centrifuged at 1600 RPM and supernatants are removed. Cells are lysed in Lysis Buffer (Cell Signaling, Danvers, MA) with Protease Inhibitor (Calbiochem/EMD, Germany), PMSF (Sigma, St Louis MO), HALTS (Thermo Fisher, Rockford, IL) for 30 min on wet ice. Cell lysates are frozen at −80° C. before testing. The lysates are tested in the Human/Mouse/Rat Phospho-RPS6 ELISA (R&D Systems, Inc. Minn, MN). The plate is measured using a microplate reader (SpectraMax M5—Molecular Devices, LLC Sunnyvale, CA) set to 450 nm with a wavelength correction of 540. IC50 determination is performed by fitting the curve of inhibitor percent inhibition versus the log of the inhibitor concentration using the GraphPad Prism 5.0 software.
The compounds of the Examples were tested in the assays described in Examples A, B and C and found to have the IC50s are shown in Tables A1, A2, A3 and A4.

[2] = target: PI3Kδ (p1106/p85a) Recombinant Human Protein (Homo sapiens (Human), UniProt O00329); assay: PI3Kδ scintillation proximity assay; assay type: biochemical
[3] = target: PI3Kγ (p110γ) Recombinant Human Protein (Homo sapiens (Human), UniProt P48736); assay: PI3K-γ scintillation proximity assay; assay type: biochemical
[4] = Table A4, scintillation proximity assay, recombinant human PI3Kδ
[5] = Table A1, scintillation proximity assay, recombinant human p110γ
[6] = Table A1, scintillation proximity assay, recombinant human PI3Kδ
[7] = Table A3, scintillation proximity assay, recombinant human p110γ
[8] = Table A3, scintillation proximity assay, recombinant human PI3Kδ
[9] = Table A4, scintillation proximity assay, recombinant human p110γ

Sequence of PI3Kδ (p1106/p85a) Recombinant Human Protein (O00329 whole entry): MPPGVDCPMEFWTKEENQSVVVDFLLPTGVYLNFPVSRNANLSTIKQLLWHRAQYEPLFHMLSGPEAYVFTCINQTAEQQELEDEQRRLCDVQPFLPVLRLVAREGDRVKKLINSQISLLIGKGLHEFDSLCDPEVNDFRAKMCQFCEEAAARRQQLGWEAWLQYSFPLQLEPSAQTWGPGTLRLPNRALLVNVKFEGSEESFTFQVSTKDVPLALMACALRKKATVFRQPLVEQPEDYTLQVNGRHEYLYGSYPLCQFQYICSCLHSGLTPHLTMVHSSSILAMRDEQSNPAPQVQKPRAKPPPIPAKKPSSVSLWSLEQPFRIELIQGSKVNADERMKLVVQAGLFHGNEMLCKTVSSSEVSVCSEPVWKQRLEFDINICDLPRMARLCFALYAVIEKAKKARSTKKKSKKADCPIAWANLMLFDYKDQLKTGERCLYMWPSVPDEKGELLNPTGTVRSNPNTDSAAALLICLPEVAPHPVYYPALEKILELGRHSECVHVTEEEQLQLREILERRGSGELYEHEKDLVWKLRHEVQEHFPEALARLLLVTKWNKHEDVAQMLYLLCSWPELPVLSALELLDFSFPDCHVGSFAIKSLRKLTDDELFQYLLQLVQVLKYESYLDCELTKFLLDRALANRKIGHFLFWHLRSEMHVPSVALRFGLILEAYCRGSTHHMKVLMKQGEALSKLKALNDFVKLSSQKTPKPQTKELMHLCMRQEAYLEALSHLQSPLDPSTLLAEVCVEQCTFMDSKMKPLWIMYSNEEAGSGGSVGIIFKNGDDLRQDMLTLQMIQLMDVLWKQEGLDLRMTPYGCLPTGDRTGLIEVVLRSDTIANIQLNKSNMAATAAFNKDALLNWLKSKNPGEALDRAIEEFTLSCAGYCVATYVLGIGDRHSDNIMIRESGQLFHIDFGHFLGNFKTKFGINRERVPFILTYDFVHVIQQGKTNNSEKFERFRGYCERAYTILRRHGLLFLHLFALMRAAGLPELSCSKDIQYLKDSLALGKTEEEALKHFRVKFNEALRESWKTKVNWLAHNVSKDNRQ
Sequence of PI3Kδ (p1106/p85a) Recombinant Human Protein (P27986 whole entry partner): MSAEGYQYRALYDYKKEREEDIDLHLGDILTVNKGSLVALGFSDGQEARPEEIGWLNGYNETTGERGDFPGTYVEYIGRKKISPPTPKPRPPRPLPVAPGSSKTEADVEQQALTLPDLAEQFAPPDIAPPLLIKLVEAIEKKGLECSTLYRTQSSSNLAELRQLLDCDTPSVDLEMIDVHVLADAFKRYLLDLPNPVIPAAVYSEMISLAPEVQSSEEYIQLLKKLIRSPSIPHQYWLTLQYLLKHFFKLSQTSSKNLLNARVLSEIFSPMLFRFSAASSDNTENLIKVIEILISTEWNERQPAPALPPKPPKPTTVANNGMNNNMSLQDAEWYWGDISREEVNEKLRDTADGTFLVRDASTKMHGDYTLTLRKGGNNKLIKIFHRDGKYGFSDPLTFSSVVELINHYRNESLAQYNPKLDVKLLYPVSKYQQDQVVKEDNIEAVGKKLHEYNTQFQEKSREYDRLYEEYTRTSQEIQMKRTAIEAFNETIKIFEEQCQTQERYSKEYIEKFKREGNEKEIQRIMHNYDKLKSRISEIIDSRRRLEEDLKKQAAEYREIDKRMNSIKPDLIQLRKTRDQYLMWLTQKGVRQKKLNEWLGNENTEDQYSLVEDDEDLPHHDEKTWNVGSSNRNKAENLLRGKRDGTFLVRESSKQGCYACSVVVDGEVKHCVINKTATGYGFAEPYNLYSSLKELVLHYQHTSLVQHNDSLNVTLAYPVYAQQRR
Sequence of PI3Kγ (p110γ) Recombinant Human Protein (P48736 whole entry): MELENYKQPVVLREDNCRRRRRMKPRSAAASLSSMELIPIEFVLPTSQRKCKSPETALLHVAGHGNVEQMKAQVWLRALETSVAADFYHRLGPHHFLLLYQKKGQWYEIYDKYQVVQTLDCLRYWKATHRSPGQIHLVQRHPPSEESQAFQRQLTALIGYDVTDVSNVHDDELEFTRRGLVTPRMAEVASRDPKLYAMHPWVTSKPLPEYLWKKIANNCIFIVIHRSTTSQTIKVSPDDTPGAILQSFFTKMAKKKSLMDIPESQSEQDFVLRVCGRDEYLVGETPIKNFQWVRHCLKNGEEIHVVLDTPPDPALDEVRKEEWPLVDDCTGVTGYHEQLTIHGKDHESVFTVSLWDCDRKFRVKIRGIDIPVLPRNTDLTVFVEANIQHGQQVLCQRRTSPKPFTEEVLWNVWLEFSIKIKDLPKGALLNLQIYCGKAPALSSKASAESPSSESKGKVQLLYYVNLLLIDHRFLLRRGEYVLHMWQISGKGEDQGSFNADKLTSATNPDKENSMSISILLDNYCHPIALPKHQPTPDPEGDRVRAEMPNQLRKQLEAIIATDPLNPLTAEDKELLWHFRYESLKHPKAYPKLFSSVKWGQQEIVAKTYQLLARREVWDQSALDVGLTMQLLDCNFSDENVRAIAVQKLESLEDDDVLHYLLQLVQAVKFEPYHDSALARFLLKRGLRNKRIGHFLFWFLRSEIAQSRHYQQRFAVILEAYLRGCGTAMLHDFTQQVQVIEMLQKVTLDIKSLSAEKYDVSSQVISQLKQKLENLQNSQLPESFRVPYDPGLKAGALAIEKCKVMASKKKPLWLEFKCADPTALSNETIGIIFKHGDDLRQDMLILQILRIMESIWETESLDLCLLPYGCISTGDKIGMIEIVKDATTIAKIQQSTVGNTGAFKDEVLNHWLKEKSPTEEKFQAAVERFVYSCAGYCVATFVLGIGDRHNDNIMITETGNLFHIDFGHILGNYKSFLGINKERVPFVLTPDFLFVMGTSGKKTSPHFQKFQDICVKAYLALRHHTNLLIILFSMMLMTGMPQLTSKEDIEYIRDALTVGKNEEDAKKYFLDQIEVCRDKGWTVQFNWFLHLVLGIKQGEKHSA

Cc1ccc(C(O)(C(N)=O)C(F)(F)F)cc1-c1cnc(N)c(C2CN(S(=O)(=O)c3cnn(C)c3)C2)n1 (single isomer, unassigned) [Example 107, 2-(3-(5-Amino-6-(1-((1-methyl-1H-pyrazol-4-yl)sulfonyl)azetidin-3-yl)pyrazin-2-yl)-4-methylphenyl)-3,3,3-trifluoro-2-hydroxypropanamide, trifluoroacetate Salt]
IC50 ([1]; Homo sapiens, Table A4): 500 to 1000 nM

CCOC(=O)C1CC(c2nc(-c3cc(C(O)(C(N)=O)C(F)(F)F)ccc3C)cnc2N)C1 (single isomer, unassigned) [Example 109, Ethyl 3-(3-amino-6-(5-(3-amino-1,1,1-trifluoro-2-hydroxy-3-oxopropan-2-yl)-2-methylphenyl)pyrazin-2-yl)cyclobutane-1-carboxylate]
IC50 [2, 4]: 100 to 500 nM
IC50 ([1]; Table A4): > 1000 nM

Cc1ccc(C(O)(C(N)=O)C(F)(F)F)cc1-c1cnc(N)c(C(=O)N[C@H]2CC[C@H](O)CC2)n1 (stereo partly drawn) [Example 3, 3-amino-6-(5-(3-amino-1,1,1-trifluoro-2-hydroxy-3-oxopropan-2-yl)-2-methylphenyl)-N-((1r,4r)-4-hydroxycyclohexyl)pyrazine-2-carboxamide trifluoroacetate]
IC50 [3, 5]: < 100 nM
IC50 [2, 6]: < 100 nM
IC50 ([1]; Table A1): < 100 nM

Cc1ccc(C(O)(C(N)=O)C(F)(F)F)cc1-c1cnc(N)c(C(=O)N[C@H]2CC[C@](C)(O)CC2)n1 (stereo partly drawn) [Example 17, 3-amino-6-(5-(3-amino-1,1,1-trifluoro-2-hydroxy-3-oxopropan-2-yl)-2-methylphenyl)-N-((1r,4r)-4-hydroxy-4-methylcyclohexyl)pyrazine-2-carboxamide trifluoroacetate]
IC50 [3, 5]: < 100 nM
IC50 [2, 6]: < 100 nM
IC50 ([1]; Table A1): < 100 nM

Cc1ncc(-c2nc(-c3cc(C(O)(C(N)=O)C(F)(F)F)ccc3C)cnc2N)s1 (stereo not drawn) [Example 72, 2-(3-(5-amino-6-(2-methylthiazol-5-yl)pyrazin-2-yl)-4-methylphenyl)-3,3,3-trifluoro-2-hydroxypropanamide trifluoroacetate]
IC50 ([1]; Homo sapiens, Table A3): < 100 nM

Cc1ccc(C(O)(C(N)=O)C(F)F)cc1-c1cnc(N)c(-c2cnn(C)n2)n1 (stereo not drawn) [Example 101, 2-(3-(5-amino-6-(2-methyl-2H-1,2,3-triazol-4-yl)pyrazin-2-yl)-4-methylphenyl)-3,3-difluoro-2-hydroxypropanamide]
IC50 [3, 7]: < 100 nM
IC50 [2, 8]: < 100 nM

Cc1ccc(C(O)(CNC=O)C(F)(F)F)cc1-c1cnc(N)c(-c2cnc(C3CC3)s2)n1 (stereo not drawn) [Example 102, N-(2-(3-(5-amino-6-(2-cyclopropylthiazol-5-yl)pyrazin-2-yl)-4-methylphenyl)-3,3,3-trifluoro-2-hydroxypropyl)formamide trifluoroacetate]
IC50 [3, 7]: < 100 nM
IC50 [2, 8]: < 100 nM

CC(=O)NCC(O)(c1ccc(C)c(-c2cnc(N)c(-c3cnn(CC(F)(F)F)c3)n2)c1)C(F)(F)F (stereo not drawn) [Example 104, N-(2-(3-(5-amino-6-(1-(2,2,2-trifluoroethyl)-1H-pyrazol-4-yl)pyrazin-2-yl)-4-methylphenyl)-3,3,3-trifluoro-2-hydroxypropyl)acetamide trifluoroacetate]
IC50 [3, 7]: < 100 nM
IC50 [2, 8]: < 100 nM

CC(=O)NCC(O)(c1ccc(C)c(-c2cnc(N)c(-c3cn[nH]c3)n2)c1)C(F)(F)F (stereo not drawn) [Example 105, N-(2-(3-(5-amino-6-(1H-pyrazol-4-yl)pyrazin-2-yl)-4-methylphenyl)-3,3,3-trifluoro-2-hydroxypropyl)acetamide trifluoroacetate]
IC50 [3, 7]: < 100 nM
IC50 [2, 8]: < 100 nM

Cc1ccc(C(O)(C(N)=O)C(F)(F)F)cc1-c1cnc(N)c(C(=O)Nc2ccnn2C)n1 (stereo not drawn) [Example 106, 3-amino-6-(5-(3-amino-1,1,1-trifluoro-2-hydroxy-3-oxopropan-2-yl)-2-methylphenyl)-N-(1-methyl-1H-pyrazol-5-yl)pyrazine-2-carboxamide trifluoroacetate]
IC50 [3, 7]: < 100 nM
IC50 [2, 8]: < 100 nM

CC(=O)N1CCN(c2nc(-c3cc(C(O)(C(N)=O)C(F)(F)F)ccc3C)cnc2N)CC1 (stereo not drawn) [Example 114, 2-(3-(6-(4-acetylpiperazin-1-yl)-5-aminopyrazin-2-yl)-4-methylphenyl)-3,3,3-trifluoro-2-hydroxypropanamide trifluoroacetate]
IC50 [3, 9]: < 100 nM
IC50 [2, 4]: < 100 nM

Cc1ccc([C@@](O)(C(N)=O)C(F)(F)F)cc1-c1cnc(N)c(N2CCN(C(=O)C3CC3)CC2)n1 [Example 115, (R)-2-(3-(5-amino-6-(4-(cyclopropanecarbonyl)piperazin-1-yl)pyrazin-2-yl)-4-methylphenyl)-3,3,3-trifluoro-2-hydroxypropanamide trifluoroacetate]
IC50 [3, 9]: < 100 nM
IC50 [2, 4]: < 100 nM

Cc1ccc(C(O)(C(N)=O)C(F)(F)F)cc1-c1cnc(N)c(N2CCN(c3ccccc3)CC2)n1 (stereo not drawn) [Example 116, 2-(3-(5-amino-6-(4-phenylpiperazin-1-yl)pyrazin-2-yl)-4-methylphenyl)-3,3,3-trifluoro-2-hydroxypropanamide trifluoroacetate]
IC50 [3, 9]: < 100 nM
IC50 [2, 4]: 100 to 500 nM

Cc1ccc(C(O)(C(N)=O)C(F)(F)F)cc1-c1cnc(N)c(N2CCN(c3ccccn3)CC2)n1 (stereo not drawn) [Example 117, 2-(3-(5-amino-6-(4-(pyridin-2-yl)piperazin-1-yl)pyrazin-2-yl)-4-methylphenyl)-3,3,3-trifluoro-2-hydroxypropanamide trifluoroacetate]
IC50 [3]: < 100 nM
IC50 [2]: < 100 nM

Cc1ccc(C)c(N2CCN(c3nc(-c4cc(C(O)(C(N)=O)C(F)(F)F)ccc4C)cnc3N)CC2)c1 (stereo not drawn) [Example 119, 2-(3-(5-amino-6-(4-(2,5-dimethylphenyl)piperazin-1-yl)pyrazin-2-yl)-4-methylphenyl)-3,3,3-trifluoro-2-hydroxypropanamide trifluoroacetate]
IC50 [3, 9]: < 100 nM
IC50 [2, 4]: 100 to 500 nM

Cc1ccc(C(O)(C(N)=O)C(F)(F)F)cc1-c1cnc(N)c(N2CCN(c3cncs3)CC2)n1 (stereo not drawn) [Example 120, 2-(3-(5-amino-6-(4-(thiazol-5-yl)piperazin-1-yl)pyrazin-2-yl)-4-methylphenyl)-3,3,3-trifluoro-2-hydroxypropanamide trifluoroacetate]
IC50 [3, 9]: < 100 nM
IC50 [2, 4]: < 100 nM

Cc1ccc(C(O)(C(N)=O)C(F)(F)F)cc1-c1cnc(N)c(N2CCN(c3cccc(C(F)(F)F)c3)CC2)n1 (stereo not drawn) [Example 121, 2-(3-(5-amino-6-(4-(3-(trifluoromethyl)phenyl)piperazin-1-yl)pyrazin-2-yl)-4-methylphenyl)-3,3,3-trifluoro-2-hydroxypropanamide trifluoroacetate]
IC50 [3, 9]: < 100 nM
IC50 [2, 4]: 100 to 500 nM

Cc1ccc(C(O)(C(N)=O)C(F)(F)F)cc1-c1cnc(N)c(N2CCN(c3ccccc3C#N)CC2)n1 (stereo not drawn) [Example 122, 2-(3-(5-amino-6-(4-(2-cyanophcnyl)piperazin-1-yl)pyrazin-2-yl)-4-methylphenyl)-3,3,3-trifluoro-2-hydroxypropanamide trifluoroacetate]
IC50 [3, 9]: < 100 nM
IC50 [2, 4]: < 100 nM

Cc1ccc(C(O)(C(N)=O)C(F)(F)F)cc1-c1cnc(N)c(N2CCN3C(=O)CCC3C2)n1 (stereo not drawn) [Example 126, 2-(3-(5-amino-6-(6-oxohexahydropyrrolo[1,2-a]pyrazin-2(1H)-yl)pyrazin-2-yl)-4-methylphenyl)-3,3,3-trifluoro-2-hydroxypropanamide trifluoroacetate]
IC50 [3, 9]: < 100 nM
IC50 [2, 4]: < 100 nM

Cc1ccc(C(O)(C(N)=O)C(F)(F)F)cc1-c1cnc(N)c(N2CCN(C(=O)c3ccco3)CC2)n1 (stereo not drawn) [Example 127, 2-(3-(5-amino-6-(4-(furan-2-carbonyl)piperazin-1-yl)pyrazin-2-yl)-4-methylphenyl)-3,3,3-trifluoro-2-hydroxypropanamide trifluoroacetate]
IC50 [3]: < 100 nM
IC50 [2]: < 100 nM

Cc1ccc(C(O)(C(N)=O)C(F)(F)F)cc1-c1cnc(N)c(N2CCN(c3nccnc3C#N)CC2)n1 (stereo not drawn) [Example 128, 2-(3-(5-amino-6-(4-(3-cyanopyrazin-2-yl)piperazin-1-yl)pyrazin-2-yl)-4-methylphenyl)-3,3,3-trifluoro-2-hydroxypropanamide trifluoroacetate]
IC50 [3, 9]: < 100 nM
IC50 [2, 4]: < 100 nM
